Source: US20090061515A1, “Methods of inhibiting or suppressing cellular proliferation” (priority 2007, published 2009)

Key:
Type in all cases: cell-based
[1] = tested on: Normal Human Dermal Fibroblast (NHDF) cells; test: CytoTox 96 LDH release cytotoxicity assay (Example 3)
Procedure: The assay used was a non-radioactive cytotoxicity assay available under the trade designation CytoTox 96 from Promega Corporation (Madison, Wis.), which was designed to determine the cytotoxicity of a substance by quantitatively measuring the presence of lactate dehydrogenase (LDH) in cell culture supernatant. The enzymatic assay utilizes the LDH released in the supernatant in the conversion of a tetrazolium salt substrate into a red formazan product. This resulting product is measured using a standard 96 well plate reader where the absorbance recorded at 490 nanometers is directly proportional to the number of lysed cells. The Normal Human Dermal Fibroblasts were available from Clonetics Corporation (San Diego, Calif.).
The 5,6-dihydroxy-hexan-2-one (1.2 grams) was dissolved in 12 ml of phosphate buffered saline and was filter sterilized through a 0.22 micrometer syringe filter prior to use. The 5,6-dihydroxy-hexan-2-one was further diluted to 10^−1, 10^−2, 10^−3, 10^−4, 10^−5, and 10^−6 using serial dilutions for the evaluation.
NHDF were seeded at 45,000 cells/well in 24 well plate(s). Cells were grown for 72 hours, 48 hours of which was done in the presence of the test chemicals. 24 hours after seeding, 5,6-dihydroxy-hexan-2-one was added to the cell culture plates (2 ml/well). […] Samples were analyzed on the above-described assay as provided in the instructions for use of the assay.

[2] = tested on: Normal Human Dermal Fibroblasts (NHDF); test: Cell growth / cell counts of NHDF during exposure and 96 hours after removal (Example 4); details: for Cell Counts after exposure and additional 96 hours with compound removed: NHDF re-seeded at 45,000 cells/well; for cell growth during exposure, in words: 24 and 48 hours of exposure
Procedure: Examination of the cell growth effects upon 24 hour and 48 hour exposure of Normal Human Dermal Fibroblasts (NHDF) to 5,6-dihydroxy-hexan-2-one. After the 24 hour or 48 hour exposures, the 5,6-dihydroxy-hexan-2-one was removed and the cells were allowed to grow for an additional 96 hours, then evaluated for growth.
The assay used was a luminescent cell viability assay available under the trade designation CellTiter-Glo from Promega Corporation (Madison, Wis.). This assay determines the number of viable cells present based on the amount of adenosine triphosphate (ATP) present from the cell cytoplasm. The concentration of ATP present is proportional to the measured amount of a luminescent signal. […] The Normal Human Dermal Fibroblasts were available from Clonetics Corporation (San Diego, Calif.).
The 5,6-dihydroxy-hexan-2-one (1.2 grams) was dissolved in 12 ml of phosphate buffered saline and was filter sterilized through a 0.22 micrometer syringe filter prior to use. The 5,6-dihydroxy-hexan-2-one was further diluted to 10^−1, 10^−2, and 10^−3 using serial dilutions for the evaluation.
NHDF were seeded at 45,000 cells/well in four 24 well plates (two testing cell growth and two to re-seed after 24 and 48 hours without 5,6-dihydroxy-hexan-2-one). 24 hours after seeding, 5,6-dihydroxy-hexan-2-one was added to the cell culture plates (2 ml/well) at a concentration of 10^−1, 10^−2, and 10^−3. Assay plates were pulled for cell growth analysis at 24 and 48 hours after addition of the chemical compound. Samples were analyzed on the above-described assay according to a published method. The other two assay plates were washed and re-seeded at 45,000 cells/well at 24 and 48 hour time points without the presence of 5,6-dihydroxy-hexan-2-one. Both plates were grown for an additional 96 hours before a cell count was taken.
To determine proliferation potential post-exposure, cells were reseeded after exposure to 5,6-dihydroxy-hexan-2-one as follows. Additional groups of cells exposed to 5,6-dihydroxy-hexan-2-one for 24 and 48 hours were then washed thoroughly to remove 5,6-dihydroxy-hexan-2-one and harvested from the culture substrate. Those cells were then plated out at the same density as before, but without exposure to 5,6-dihydroxy-hexan-2-one. These two groups were supplied with fresh media and allowed to grow for 96 additional hours. Visual representation of the 10^−1 and 10^−2 groups can be seen in FIG. 15 (10^−1, re-seeded without 5,6-dihydroxy-hexan-2-one for 96 hours) and FIG. 16 (10^−2, re-seeded without 5,6-dihydroxy-hexan-2-one for 96 hours).

[3] = tested on: human umbilical vein endothelial cells (HUVEC); test: Cell migration after 48 hours exposure, HUVEC (Example 6); details: 10 mg/ml and 1 mg/ml
Procedure: (§1) Evaluation of the effects of 5,6-dihydroxy-hexan-2-one on human umbilical vein endothelial cells (HUVEC) and Glioblastoma/Astrocytoma cells U87 cellular proliferation and migration during 120 hours following 48 hour exposure to 5,6-dihydroxy-hexan-2-one at concentration of 10 mg/ml, 1 mg/ml, 100 micrograms/ml. Controls were cells not exposed to the agent.
(§2) In order to further explore the effects of this compound, experiments to evaluate the dose-effect response on the antiproliferative effect and on cell migration were conducted on two cell lines, human umbilical vein endothelial cells (HUVEC) and Glioblastoma/Astrocytoma cells (U87), over 120 hours after 48 hours of exposure to the compound.
FIGS. 23(a)-(l) are pictures that visually display the migration over time of human umbilical vein endothelial cells (HUVEC) after 48 hours exposure to various concentrations of 5,6-dihydroxy-hexan-2-one. Specifically, FIGS. 23(a)-(d) represent the control, FIGS. 23(e)-(h) represent 10 mg/ml, and FIGS. 23(i)-(l) represent 1 mg/ml 5,6-dihydroxy-hexan-2-one. FIGS. 23(a), (e), and (i) represent migration after 2 hours; FIGS. 23(b), (f), and (j) represent migration after 14 hours; FIGS. 23(c), (g), and (k) represent migration after 20 hours; and FIGS. […], (h), and (l) represent migration after 48 hours.

[4] = tested on: human Glioblastoma/Astrocytoma U87 cells; test: Cell migration after 48 hours exposure, U87 (Example 6); details: U87, 10 mg/ml and 1 mg/ml
Procedure: as §1, §2
FIGS. 24(a)-(l) are pictures that visually display the migration over time of human Glioblastoma/Astrocytoma U87 cells after 48 hours exposure to various concentrations of 5,6-dihydroxy-hexan-2-one. Specifically, FIGS. 24(a)-(d) represent the control, FIGS. 24(e)-(h) represent 10 mg/ml, and FIGS. 24(i)-(l) represent 1 mg/ml 5,6-dihydroxy-hexan-2-one. FIGS. 24(a), (e), and (i) represent migration after 2 hours; FIGS. 24(b), (f), and (j) represent migration after 14 hours; FIGS. 24(c), (g), and (k) represent migration after 20 hours; and FIGS. […], (h), and (l) represent migration after 48 hours.

CC(=O)CCC(O)CO (stereo not shown) [5,6-dihydroxy-hexan-2-one]
cytotoxicity (LDH release), in words ([1]; 10^-1 concentration): no significant cytotoxicity
cytotoxicity (LDH release), in words ([1]; various concentrations, 48 hours): no increase in cytotoxicity
Cell Counts after exposure and additional 96 hours with compound removed ([2]; 0.1 mg/ml, 24 Hour Group): 200,000 cells
Cell Counts after exposure and additional 96 hours with compound removed ([2]; 0.1 mg/ml, 48 Hour Group): 207,500 cells
Cell Counts after exposure and additional 96 hours with compound removed ([2]; 1 mg/ml, 24 Hour Group): 172,000 cells
Cell Counts after exposure and additional 96 hours with compound removed ([2]; 1 mg/ml, 48 Hour Group): 165,000 cells
Cell Counts after exposure and additional 96 hours with compound removed ([2]; 10 mg/ml, 24 Hour Group): 55,000 cells
Cell Counts after exposure and additional 96 hours with compound removed ([2]; 10 mg/ml, 48 Hour Group): 65,000 cells
Cell Counts after exposure ([2]; NHDF, 0.1 mg/ml, 24 Hour Group): 180,000 cells
Cell Counts after exposure ([2]; NHDF, 0.1 mg/ml, 48 Hour Group): 305,000 cells
Cell Counts after exposure ([2]; NHDF, 1 mg/ml, 24 Hour Group): 160,000 cells
Cell Counts after exposure ([2]; NHDF, 1 mg/ml, 48 Hour Group): 150,000 cells
Cell Counts after exposure ([2]; NHDF, 10 mg/ml, 24 Hour Group): 65,000 cells
Cell Counts after exposure ([2]; NHDF, 10 mg/ml, 48 Hour Group): 80,000 cells
cell growth during exposure, in words ([2]; NHDF, 10^-1 concentration group): only a minimal amount of growth
cell growth after 96 hours without compound, in words ([2]; NHDF, 10^-1 group, after withdrawal): significant inhibition of cell growth
cell growth during exposure, in words ([2]; NHDF, 10^-2 concentration group): reduced from the control
cell growth after 96 hours without compound, in words ([2]; NHDF, 10^-2 group, after withdrawal): slight reduction of cell growth
cell growth after withdrawal, in words ([2]; NHDF, 10^-3 concentration (lowest tested), after withdrawal): behave similar to controls
cell growth during exposure, in words ([2]; NHDF, 10^-3 concentration group): continued to grow without problems
cell migration [3]: did not shown differences
cell migration [4]: did not shown differences
